Measured values as given in article PMC10179972, “New Hybrid Tetrahydropyrrolo[3,2,1-ij]quinolin-1-ylidene-2-thioxothiazolidin-4-ones as New Inhibitors of Factor Xa and Factor XIa: Design, Synthesis, and In Silico and Experimental Evaluation” (Molecules, 2023).

What was measured:
factor XIa [1] = target: T1, factor XIa (Homo sapiens, UniProt P03951); experiment: Inhibition of factor XIa, kinetics of hydrolysis of chromogenic substrate S2366; type: biochemical; conditions: 30 μM compound; factor XIa 0.8 nmol/L, S2366 200 μmol/L, pH 8.0; read-out: Percent Inhibition at 30 μM, XIa
T1 sequence (P03951 388-625 limits assumed): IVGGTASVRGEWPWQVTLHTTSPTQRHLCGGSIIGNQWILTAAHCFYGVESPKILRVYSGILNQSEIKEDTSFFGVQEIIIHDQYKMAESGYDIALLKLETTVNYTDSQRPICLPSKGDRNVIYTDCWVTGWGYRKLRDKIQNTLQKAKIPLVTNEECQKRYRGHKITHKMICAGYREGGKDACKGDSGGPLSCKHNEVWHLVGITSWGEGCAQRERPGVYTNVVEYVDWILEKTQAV
T1 sequence (P03951 19-387 partner limits assumed): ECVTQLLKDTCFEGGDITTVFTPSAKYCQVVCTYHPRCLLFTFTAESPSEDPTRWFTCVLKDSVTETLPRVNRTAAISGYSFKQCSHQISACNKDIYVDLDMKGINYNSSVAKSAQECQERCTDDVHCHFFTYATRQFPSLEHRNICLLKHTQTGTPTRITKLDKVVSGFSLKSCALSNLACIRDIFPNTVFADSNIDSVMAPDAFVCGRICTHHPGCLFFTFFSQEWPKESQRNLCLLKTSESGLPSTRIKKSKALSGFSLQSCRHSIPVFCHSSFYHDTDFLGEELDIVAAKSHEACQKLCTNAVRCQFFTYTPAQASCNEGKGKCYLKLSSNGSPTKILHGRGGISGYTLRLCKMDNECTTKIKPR
Experimental: Compounds 12, 14 and 16 were evaluated for their anticoagulant activity against factors Xa and Xia, and the results are presented in Table 1. For the best Xa and XIa inhibitors, additional measurements were performed to determine the IC50 values. We measured the kinetics of the hydrolysis of the specific substrates S2765 or S2366 by factors Xa and XIa, respectively, in the buffer solution and in the presence of various concentrations of compounds.
(§1) A specific low-molecular-weight chromogenic substrate, S2765 (Z-D-Arg-Gly-Arg-pNA·2HCl), was used in the case of factor Xa, while the substrate S2366 (pyroGlu-Pro-ArgpNA·HCl) (both substrates from Chromogenix, USA) was used for factor XIa.
(§2) A buffer containing 140 mM NaCl, 20 mM HEPES, and 0.1% PEG 6000 (pH 8.0) was placed in the wells of a 96-well plate, followed by the addition of factor Xa (final concentration, 2.5 nmol·L^–1) or XIa (final concentration 0.8 nmol·L^–1), the substrate S2765 (final concentration, 200 μmol·L^–1) or S2366 (final concentration, 200 μmol·L^–1), and a solution of the test compound in DMSO (final concentration, 30 μmol·L^–1; the DMSO content in the well was no more than 2%). The kinetics of the formation of p-nitroaniline were measured using a THERMOmax Microplate Reader (Molecular Devices Corporation, USA) using the absorption of light with a wavelength of 405 nm. The initial rate of substrate degradation was determined from the initial slope of the 4-nitroaniline-formation curve. The rate of substrate degradation by the enzyme in the presence of the inhibitor was expressed as a percentage relative to the rate of substrate degradation in the absence of the inhibitor. The data obtained were processed using GraphPad Prism and OriginPro 8 software.

factor Xa [2] = target: T2, factor Xa (Homo sapiens, UniProt P00742); experiment: Inhibition of factor Xa, kinetics of hydrolysis of chromogenic substrate S2765; type: biochemical; conditions: 30 μM compound; factor Xa 2.5 nmol/L, S2765 200 μmol/L, pH 8.0; read-out: Percent Inhibition at 30 μM, Xa
T2 construct: followed by the addition of factor Xa (final concentration, 2.5 nmol·L^–1)
T2 sequence (P00742 235-488 limits assumed): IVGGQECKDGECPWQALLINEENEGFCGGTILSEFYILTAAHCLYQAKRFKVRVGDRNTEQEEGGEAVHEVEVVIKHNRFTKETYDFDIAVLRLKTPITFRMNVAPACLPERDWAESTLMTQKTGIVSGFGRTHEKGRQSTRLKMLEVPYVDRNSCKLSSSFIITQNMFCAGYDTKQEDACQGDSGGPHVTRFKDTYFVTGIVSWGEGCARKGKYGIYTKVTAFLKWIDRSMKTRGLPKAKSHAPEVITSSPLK
T2 sequence (P00742 41-179 partner limits assumed): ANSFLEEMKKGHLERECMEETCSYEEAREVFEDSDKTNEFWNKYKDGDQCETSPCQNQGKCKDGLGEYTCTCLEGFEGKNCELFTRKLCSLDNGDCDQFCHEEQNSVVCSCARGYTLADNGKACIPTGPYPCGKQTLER
Experimental: We measured the kinetics of the hydrolysis of the specific substrates S2765 or S2366 by factors Xa and XIa, respectively, in the buffer solution and in the presence of various concentrations of compounds.
as §1
as §2, with “The kinetics of the formation of p-nitroaniline were measured using a THERMOmax Microplate Reader (Molecular Devices Corporation, USA) using the absorption of light with a wavelength of 405 nm.” left out

factor XIa [3] = target: T1, factor XIa; set-up: method as in earlier work; conditions: known actives used in validation of docking protocol, ref [1]-[6] of Table S2, column Ligand ID, cited from earlier work
factor Xa [4] = target: T2, factor Xa; conditions: cited from earlier work

Row | inhibition at 30 µM (factor XIa [1]) [%] | inhibition at 30 µM (factor Xa [2]) [%] | SMILES | further results
1 | 5 | 31 | Cc1cc2c3c(c1)C(C)CC(C)(C)N3C(=O)/C2=C1\NC(=S)NC1=O (stereo not shown) [16b, (Z)-4,4,6,8-Tetramethyl-1-(5-oxo-2-thioxoimidazolidin-4-ylidene)-5,6-dihydro-4H-pyrrolo[3,2,1-ij]quinolin-2(1H)-one] | 
2 | 57 | 45 | CC1(c2ccccc2)CC(C)(C)N2C(=O)/C(=C3\NC(=S)NC3=O)c3cccc1c32 (stereo not shown) [16c, (Z)-4,4,6-Trimethyl-1-(5-oxo-2-thioxoimidazolidin-4-ylidene)-6-phenyl-5,6-dihydro-4H-pyrrolo[3,2,1-ij]quinolin-2(1H)-one] | 
3 | 2 | 17 | CC1(c2ccccc2)CC(C)(C)N2C(=O)/C(=C3\NC(=S)NC3=O)c3cc(F)cc1c32 (stereo not shown) [16d, (Z)-8-Fluoro-4,4,6-trimethyl-1-(5-oxo-2-thioxoimidazolidin-4-ylidene)-6-phenyl-5,6-dihydro-4H-pyrrolo[3,2,1-ij]quinolin-2(1H)-one] | 
4 | 86 | 59 | Cc1cc2c3c(c1)C(C)(c1ccc(Cl)cc1)CC(C)(C)N3C(=O)/C2=C1\NC(=S)NC1=O (stereo not shown) [16e, (Z)-6-(4-Chlorophenyl)-4,4,6,8-tetramethyl-1-(5-oxo-2-thioxoimidazolidin-4-ylidene)-5,6-dihydro-4H-pyrrolo[3,2,1-ij]quinolin-2(1H)-one] | 
5 |  |  | CC(C)CC(=O)Nc1cc(-c2ccc(C(N)=O)cc2C(=O)O)cc([C@@H]2C[C@](C)(c3ccccc3)c3cc(C(=N)N)ccc3N2)c1 [BMS-654457] | Ki (factor XIa [3]; read-out: Ki, factor XIa (Table S2, values in brackets)): 200 pM
6 |  |  | CS(=O)(=O)c1ccccc1-c1ccc(N2CC[C@H](NS(=O)(=O)CCc3ccc(Cl)s3)C2=O)c(F)c1 [GSV] | IC50 (factor Xa [4]; known actives of crystal complexes used in validation of docking protocol, no reference given, read-out: IC50, factor Xa (Table S2)): 200 pM
7 |  |  | Cc1cc(=O)[nH]c2ccc(Cl)cc12 [MVN] | IC50 (factor XIa [3]): > 1100 pM

Row | SMILES | inhibition at 30 µM (factor XIa [1]) [%] | inhibition at 30 µM (factor Xa [2]) [%] | further results
8 | O=C(NC[C@H]1CN(c2ccc(N3CCOCC3=O)cc2)C(=O)O1)c1ccc(Cl)s1 [Rivaroxaban, reference compound] | 8 |  | factor-Xa inhibitor potency in words (factor Xa [4]): subnanomolar
